In US4235666A, “1,2,3,4,4a,9a-Hexahydro-9,10-anthracene-dione, its preparation and its application to the delignification of lignocellulosic materials” (Produits Chimiques Ugine Kuhlmann, priority 1978, dated 1980):
“Also recorded” adds a separate entry of the source. Read-outs that look alike come from different tables or passages of the source.

Tests used:
Design in all cases: species or system moorland maritime pine
[1] = Kraft cooking (caustic soda-sulfuric liquor) with adjuvant
Protocol: Shavings from moorland maritime pine are subjected to cooking in an autoclave with a caustic soda-sulfuric liquor under the following conditions:
Proportion of active alkali: 22% by weight with respect to the dry vegetable material,
Sulfidity: 25% with respect to the active alkali,
Ratio liquor/vegetable material: 4
Temperature of heating: 170° C.
Time taken to arrive at the heating temperature: 90 min.,
Time of heating: 120 min.
Amount of adjuvant: 0-0.1%-0.5%-1% by weight with respect to the dry vegatable material.
After cooking, the same operations as those described in Example 9 are carried out on the pulps and the cooking liquors. […]

[2] = Mechanical characteristics of crude pulps from Kraft cooking, refined at 40° SR; settings: for Index of rupture / Index of tearing / Length of rupture / Resistance to bending: 0.5% adjuvant, 40° SR
Protocol: (§1) The raw pulps for reference and those obtained with 0.5% of adjuvant in the cooking are refined in a Jokro mill.
(§2) Sheets for physical tests are produced on a Rapid Kothen mold. Their weight per m^2 is about 70 g.
(§3) The following mechanical characteristics are determined:
(§4) Length of break: AFNOR NFQ 03004 standard
(§5) Index of splitting or cracking: AFNOR NFQ 03014 standard
(§6) Tearing index: AFNOR NFQ 03011 standard
(§7) Resistance to bending or folding: AFNOR NFQ 03001 standard
After cooking, the same operations as those described in Example 9 are carried out on the pulps and the cooking liquors.
A comparative test with 0.5% of anthraquinone is effected under the same operational conditions as in Example 11. The mechanical characteristics of the pulps obtained are compared with those of a Kraft pulp for reference (Table VII).
Mechanical characteristics of the crude pulps refined at
40° SR Kraft cooking with 0.5% of adjuvant

[3] = Mechanical characteristics of raw pulps from caustic soda cooking, refined at 40° SR; settings: for Index of rupture / Index of tearing / Length of rupture / Resistance to bending: 0.5% adjuvant, 40° SR
Protocol: as §1, §2, §3, §4, §5, §6, §7
The mechanical characteristics of the raw or unwashed pulps obtained after heating with caustic soda in the presence of 0.5% of adjuvant are compared with those of a conventional Kraft pulp (Table IV).
Mechanical characteristics of raw pulps refined at
40° SR caustic soda cooking with 0.5% of adjuvant

[4] = Caustic soda cooking (delignification) with adjuvant; settings: for Kappa index: NFT 12018
Protocol: Shavings of moorland maritime pine are subjected to heating in an autoclave with a caustic soda liquor. The cooking conditions are as follows:
Amount of caustic soda: 22% by weight with respect to the dry vegetable material.
Ratio of liquor/vegetable material: 4
Temperature of cooking: 170° C.
Time in which the cooking temperature
Time of cooking: 90 minutes
Amount of adjuvant: 0-0.1%-0.5%-1% by weight with respect to the dry vegetable material
After cooking, the pulps obtained are washed, disintegrated on a 3 mm grid (Vewerk grader or sorter).
The crude yield and the yield of sorted pulp are determined on the pulps, and the Kappa index according to French standard NFT 12018 are determined on the raw pulps.
The pH and the consumption of caustic soda are determined on the liquors after cooking.
A comparative test with 0.5% of anthraquinone was carried out under the same operational conditions as in Example 9.

SMILES: O=C1c2ccccc2C(=O)C2CCCCC12 (stereo not drawn) [6 HAD, 1,2,3,4,4a,9a-hexahydro-9,10-anthracene-dione]
- effect on delignification, Kappa index and yield [1]: enables the Kappa index of the pulps to be appreciably lowered without alteration of the mechanical properties; also recorded: With identical Kappa indexes, yields greater than those of the Kraft process referred to can be obtained; also recorded: increases the kinetics and the selectivity of the delignification; also recorded: decrease of the Kappa index of the pulps without reduction of the yield of the cooking
- % Effective alkali consumed/wood ([1]; 0.1% adjuvant): 17.5%
- Classified yield ([1]; 0.1% adjuvant): 44.3%
- Crude yield ([1]; 0.1% adjuvant): 44.6%
- Kappa index ([1]; 0.1% adjuvant): 27.4
- % Effective alkali consumed/wood ([1]; 0.5% adjuvant): 17.9%
- Classified yield ([1]; 0.5% adjuvant): 44.5%
- Crude yield ([1]; 0.5% adjuvant): 44.8%
- Kappa index ([1]; 0.5% adjuvant): 24.2
- % Effective alkali consumed/wood ([1]; 1% adjuvant): 18.2%
- Classified yield ([1]; 1% adjuvant): 44.3%
- Crude yield ([1]; 1% adjuvant): 44.4%
- Kappa index ([1]; 1% adjuvant): 22.0
- mechanical characteristics / degradation of pulps [2]: more favorable than that of anthraquinone
- Index of rupture ([2]; Kraft cooking): 5.55
- Index of tearing ([2]; Kraft cooking): 847
- Length of rupture ([2]; Kraft cooking): 7,000 m
- Resistance to bending ([2]; Kraft cooking): 1,917
- Index of rupture [3]: 4.82
- Index of tearing [3]: 922
- Length of rupture [3]: 7,030 m
- Resistance to bending [3]: 1,846
- quality / mechanical properties of pulps ([3]; compared with conventional Kraft pulp): very near to the quality of the conventional Kraft pulp; also recorded: mechanical properties similar to those of Kraft pulps with a similar yield and Kappa indexes
- effect on delignification [4]: has the same effect as the anthraquinone
- % Caustic soda consumed/wood ([4]; 0.1% adjuvant): 16.9%
- Classified yield ([4]; 0.1% adjuvant): 45.7%
- Crude yield ([4]; 0.1% adjuvant): 46.2%
- Kappa index ([4]; 0.1% adjuvant): 51.7
- % Caustic soda consumed/wood ([4]; 0.5% adjuvant): 17.9%
- Classified yield ([4]; 0.5% adjuvant): 45.5%
- Crude yield ([4]; 0.5% adjuvant): 45.8%
- Kappa index ([4]; 0.5% adjuvant): 33.4
- % Caustic soda consumed/wood ([4]; 1% adjuvant): 18.1%
- Classified yield ([4]; 1% adjuvant): 45.5%
- Crude yield ([4]; 1% adjuvant): 45.7%
- Kappa index ([4]; 1% adjuvant): 28.0
- effect on delignification ([4]; listed as 1,2,3,4,4a,9a-hdxahydro9,10-anthracene-dione): accelerates the delignification and makes it more selective

SMILES: O=C1c2ccccc2C(=O)c2ccccc21 [Anthraquinone, anthraquinone, reference compound]
- % Effective alkali consumed/wood ([1]; 0.5% adjuvant): 17.4%
- Classified yield ([1]; 0.5% adjuvant): 43.8%
- Crude yield ([1]; 0.5% adjuvant): 44%
- Kappa index ([1]; 0.5% adjuvant): 24.3
- mechanical characteristics / degradation of pulps ([2]; Kraft cooking): inferior mechanical characteristics; also recorded: a relatively large degradation is observed
- Index of rupture ([2]; Kraft cooking): 4.48
- Index of tearing ([2]; Kraft cooking): 808
- Length of rupture ([2]; Kraft cooking): 5,850 m
- Resistance to bending ([2]; Kraft cooking): 905
- Index of rupture [3]: 5.07
- Index of tearing [3]: 813
- Length of rupture [3]: 7,230 m
- Resistance to bending [3]: 945
- % Caustic soda consumed/wood ([4]; 0.5% adjuvant): 17.5%
- Classified yield ([4]; 0.5% adjuvant): 46.2%
- Crude yield ([4]; 0.5% adjuvant): 46.8%
- Kappa index ([4]; 0.5% adjuvant): 32.2
